pEC50: −log10 of the molar value. Where only a bound is given, the exact number is not on record here.

Usually pEC50 stands for the EC50 on a negative log10 scale, so that one unit is a factor of ten.

The test system of the first assay is HIV-1. As to the kind of experiment: HIV-1 single-round infectious luciferase reporter virus (pseudotype) assay in HeLa CD4 CCR5 cells. It counts as cell-based. The settings on record: Human immunodeficiency virus 1, HeLa-CD4/CCR5, read-out: EC50 Group from TABLE 1, HeLa CD4 CCR5 cells, single-round infectious luciferase reporter virus. Here is the method:
• Virus production—Human embryonic Kidney cell line, 293, propagated in Dulbecco's Modified Eagle Medium (Life Technologies, Gaithersburg, Md.) containing 10% fetal Bovine serum (FBS, Sigma, St. Louis, Mo.). • Virus infection—Human epithelial cell line, HeLa, expressing the HIV-1 receptors CD4 and CCR^5 was propagated in Dulbecco's Modified Eagle Medium (Life Technologies, Gaithersburg, Md.) containing 10% fetal Bovine serum (FBS, Sigma, St. Louis, Mo.) and supplemented with 0.2 mg/mL Geneticin (Life Technologies, Gaithersburg, Md.) and 0.4 mg/mL Zeocin (Invitrogen, Carlsbad, Calif.). […] Transfections were performed using lipofectAMINE PLUS reagent as described by the manufacturer (Life Technologies, Gaithersburg, Md.). Experiment • 1. Compound was added to HeLa CD4 CCR5 cells plated in 96 well plates at a cell density of 5×10^4 cells per well in 100 μl Dulbecco's Modified Eagle Medium containing 10% fetal Bovine serum at a concentration of […]. • 2. 100 μl of single-round infectious reporter virus in Dulbecco's Modified Eagle Medium was then added to the plated cells and compound at an approximate multiplicity of infection (MOI) of 0.01, resulting in a final volume of 200 μl per well and a final compound concentration of <10 μM. • 3. Samples were harvested 72 h after infection. • 4. Viral infection was monitored by measuring luciferase expression from viral DNA in the infected cells using a luciferase reporter gene assay kit (Roche Molecular Biochemicals, Indianapolis, Ind.). Infected cell supernatants were removed and 50 μl of Dulbecco's Modified Eagle Medium (without phenol red) and 50 μl of luciferase assay reagent reconstituted as described by the manufacturer (Roche Molecular Biochemicals, Indianapolis, Ind.) was added per well. Luciferase activity was then quantified by measuring luminescence using a Wallac microbeta scintillation counter. • 5. […] An EC50 provides a method for comparing the antiviral potency of the compounds of this invention. The effective concentration for fifty percent inhibition (EC50) was calculated with the Microsoft Excel Xlfit curve fitting software. For each compound, curves were generated from percent inhibition calculated at 10 different concentrations by using a four paramenter logistic model (model 205). Table 1 is the key for the data in Tables 2-4. Cytoxicity assays were conducted with the same HeLa using methodology well known in the art.
In Table 5, X2, X4 etc. indicates the point of attachment. […] The data at 10 μM was calculated in the following manner:
For compounds tested at concentrations less than 10 μM, the percent inhibition at 10 μM was determined by extrapolation using the XLfit curve fitting feature of the Microsoft Excel spreadsheet software. Curves were obtained from 10 data points (% inhibition determined at 10 concentrations of compound) by using a four parameter logistic model (XLfit model 205: y=A+((B−A)/(I+((C/x)^D))), where, A=minimum y, B=maximum y, C=logEC50, D=slope factor, and x and y are known data values. Extrapolations were performed with the A and B parameters unlocked. […]
In the case of `COc1cnc(-n2ccc(C3=CCCCC3)n2)c2[nH]cc(C(=O)C(=O)N3CCN(C(=O)c4ccccc4)CC3)c12` [Example 278, 1-benzoyl-4-[(4-methoxy-7-(3-(cyclohexen-1-yl)-pyrazol-1-yl)-6-azaindol-3-yl)-oxoacetyl]piperazine], the pEC50 was more than 6.00. For the compound `COc1cnc(-c2ccnnc2)c2[nH]cc(C(=O)C(=O)N3CCN(C(=O)c4ccccc4)CC3)c12` [Example 23, l-benzoyl-4-[(4-methoxy-7-(pyridazin-4-yl)-6-azaindol-3-yl)-oxoacetyl]piperazine], the pEC50 is more than 6.00. Consider `COc1cnc(-c2cncc(N)n2)c2[nH]cc(C(=O)C(=O)N3CCN(C(=O)c4ccccc4)CC3)c12` [Example 46, 1-benzoyl-4-[(4-methoxy-7-(2-amino-pyrazin-6-yl)-6-azaindol-3-yl)-oxoacetyl]piperazine], for which the pEC50 is more than 6.00. Turning to `CNc1cnc(-c2ncc(OC)c3c(C(=O)C(=O)N4CCN(C(=O)c5ccccc5)CC4)c[nH]c23)cn1` [Example 115, 1-benzoyl-4-[(4-methoxy-7-(2-methylamino-pyrazin-5-yl)-6-azaindol-3-yl)-oxoacetyl]piperazine], the pEC50 was more than 6.00. On the same count and under the same terms, as for `C[C@@H]1CN(C(=O)c2ccccc2)CCN1C(=O)C(=O)c1c[nH]c2c(-c3cccs3)nccc12` [Example 9, 1-(benzoyl)-3-®-methyl-4-[(7-(thien-2-yl)-6-azaindol-3-yl)-oxoacetyl]piperazine], the figure is more than 6.00; as for `COc1cnc(-n2nccc2C)c2[nH]cc(C(=O)C(=O)N3CCN(C(=O)c4ccccc4)CC3)c12` [Example 240, 1-benzoyl-4-[(4-methoxy-7-(5-methyl-pyrazol-1-yl)-6-azaindol-3-yl)-oxoacetyl]piperazine], more than 6.00; as for `COc1cnc(-n2ccc(-c3ccc(C(F)(F)F)cc3)n2)c2[nH]cc(C(=O)C(=O)N3CCN(C(=O)c4ccccc4)CC3)c12` [Example 288, 1-benzoyl-4-[(4-methoxy-7-(3-(4-trifluoromethyl-phenyl)-pyrazol-1-yl)-6-azaindol-3-yl)-oxoacetyl]piperazine], more than 6.00.

On to `C[C@@H]1CN(C(=O)c2ccccc2)CCN1C(=O)C(=O)c1c[nH]c2c(-c3cnc(N)cn3)nccc12` [Example 150, (R)-1-benzoyl-3-methyl-4-[(7-(5-amino-pyrazin-2-yl)-6-azaindol-3-yl)-oxoacetyl]piperazine], for which the pEC50 is more than 6.00. For the compound `C[C@@H]1CN(C(=O)c2ccccc2)CCN1C(=O)C(=O)c1c[nH]c2c(-c3cncnc3)nccc12` [Example 16, 1-benzoyl-3-(R)-methyl-4-[(7-(pyrimidin-5-yl)-6-azaindol-3-yl)-oxoacetyl]piperazine], the pEC50 is more than 6.00. Still for that read-out and setting: as for `C[C@H]1CN(C(=O)c2ccccn2)CCN1C(=O)C(=O)c1c[nH]c2c(-c3cnc(N(C)C)cn3)nccc12` [Example 106, (S)-1-picolinoyl-3-methyl-4-[(7-(2-dimethylamino-pyrazin-5-yl)-6-azaindol-3-yl)-oxoacetyl]piperazine], the figure is more than 6.00; as for `O=C(Nc1cccnc1)c1ncc(Cl)c2c(C(=O)C(=O)N3CCN(C(=O)c4ccccc4)CC3)c[nH]c12` [Example 152], more than 6.00; as for `C[C@H]1CN(C(=O)c2ccccn2)CCN1C(=O)C(=O)c1c[nH]c2c(-c3cc4ccccc4o3)nccc12` [Example 108, (S)-1-picolinoyl-3-methyl-4-[(7-(benzofuran-2-yl)-6-azaindol-3-yl)-oxoacetyl]piperazine], more than 6.00. In the case of `COc1cnc(-c2cccnn2)c2[nH]cc(C(=O)C(=O)N3CCN(C(=O)c4ccccc4)CC3)c12` [Example 120, 1-benzoyl-4-[(4-methoxy-7-(pyridazin-3-yl)-6-azaindol-3-yl)-oxoacetyl]piperazine], the pEC50 was more than 6.00. Still for that read-out and setting: as for `CCOC(=O)c1cc(-c2ncc(F)c3c(C(=O)C(=O)N4CCN(C(=O)c5ccccc5)CC4)c[nH]c23)n[nH]1` [Example 209], the figure is more than 6.00; as for `COc1cnc(-c2cnc(N(C)C)cn2)c2[nH]cc(C(=O)C(=O)N3CCN(C(=O)c4ccccc4)CC3)c12` [Example 72, 1-(benzoyl)-4-[(4-methoxy-7-(2-dimethylamino-pyrazin-5-yl)-6-azaindol-3-yl)-oxoacetyl]piperazine], more than 6.00; as for `COc1cnc(-c2cnc(C(N)=O)cn2)c2[nH]cc(C(=O)C(=O)N3CCN(C(=O)c4ccccc4)CC3)c12` [Example 55, 1-benzoyl-4-[(4-methoxy-7-(2-aminocarbonyl-pyrazin-5-yl)-6-azaindol-3-yl)-oxoacetyl]piperazine], more than 6.00. For the compound `O=C(C(=O)N1CCN(C(=O)c2ccccc2)CC1)c1c[nH]c2c(-n3ccnc3)ncc(F)c12` [Example 218], the pEC50 was more than 6.00. `COc1cnc(-c2cnccn2)c2[nH]cc(C(=O)C(=O)N3CCN(C(=O)c4cnccn4)CC3)c12` [Example 195]: the pEC50 is more than 6.00.

For the compound `C[C@@H]1CN(C(=O)c2ccccc2)CCN1C(=O)C(=O)c1c[nH]c2c(-c3cccc(N)n3)nccc12` [Example 112, (R)-1-benzoyl-3-methyl-4-[(7-(2-amino-pyridin-6-yl)-6-azaindol-3-yl)-oxoacetyl]piperazine], the pEC50 was more than 6.00.

Turning to `CNc1nc(-c2ncc(F)c3c(C(=O)C(=O)N4CCN(C(=O)c5ccccc5)CC4)c[nH]c23)no1` [Example 298], the pEC50 was more than 6.00.

As for `COc1cnc(-c2cnc(N3CCOCC3)cn2)c2[nH]cc(C(=O)C(=O)N3CCN(C(=O)c4ccccc4)CC3)c12` [Example 178, 1-benzoyl-4-[(4-methoxy-7-(2-(4-morpholinyl)-pyrazin-5-yl)-6-azaindol-3-yl)-oxoacetyl]piperazine], the pEC50 is more than 6.00.

The assay is the same for the next values; noted with them: Human immunodeficiency virus 1, HeLa-CD4/CCR5, read-out: EC50 Group from Table 1, Table 2-1; HeLa CD4 CCR5 cells, single-round luciferase reporter virus.
On to `COc1cnc(-c2cnc(N)cn2)c2[nH]cc(C(=O)C(=O)N3CCN(C(=O)c4ccccn4)[C@H](C)C3)c12` [Example 267], for which the pEC50 was more than 6.00. Regarding `COc1cnc(-n2ccc(-c3ccccc3)n2)c2[nH]cc(C(=O)C(=O)N3CCN(C(=O)c4ccccc4)[C@H](C)C3)c12` [Example 260, (R)-1-benzoyl-2-methyl-4-[(4-methoxy-7-(3-phenyl-pyrazol-1-yl)-6-azaindol-3-yl)-oxoacetyl]piperazine], the pEC50 was more than 6.00. Take `COc1cnc(-n2ccc(C(C)=O)n2)c2[nH]cc(C(=O)C(=O)N3CCN(C(=O)c4ccccc4)[C@H](C)C3)c12` [Example 259, (R)-1-benzoyl-2-methyl-4-[(4-methoxy-7-(3-methylcarbonyl-pyrazol-1-yl)-6-azaindol-3-yl)-oxoacetyl]piperazine]: the pEC50 is more than 6.00.

Staying with this assay, now noted: Human immunodeficiency virus 1, HeLa-CD4/CCR5, read-out: EC50 Group from Table 1, Table 4; HeLa CD4 CCR5 cells, single-round luciferase reporter virus.
With `Cc1csc(-c2ccnc3c(C(=O)C(=O)N4CCN(C(=O)c5ccccc5)C[C@H]4C)c[nH]c23)c1` [Example 86, 1-benzoyl-3-(R)-methyl-4-[(7-(4-methyl-thiophen-2-yl)-4-azaindol-3-yl)-oxoacetyl]piperazine], the pEC50 was more than 6.00. Turning to `CON(C)C(=O)c1cc(Cl)nc2c(C(=O)C(=O)N3CCN(C(=O)c4ccccc4)C[C@H]3C)c[nH]c12` [Example 58, 1-benzoyl-3-(R)-methyl-4-[(5-chloro-(7-(methoxymethylamino)carbonyl)-4-azaindol-3-yl)-oxoacetyl]piperazine], the negative-log EC50 (pEC50) is more than 6.00.

Consider `O=C(C(=O)N1CCN(C(=O)c2ccccc2)CC1)c1c[nH]c2c(-c3cc4ccccc4o3)ccnc12` [Example 203, 1-(7-benzofuran-2-yl-1H-pyrrolo[3,2-b]pyridin-3-yl)-2-(4-benzoyl-piperazin-1-yl)-ethane-1,2-dione], for which the pEC50 was more than 6.00.

In the case of `C[C@@H]1CN(C(=O)c2ccccc2)CCN1C(=O)C(=O)c1c[nH]c2c(-c3cncnc3)ccnc12` [Example 51, 1-benzoyl-3-(R)-methyl-4-[(7-(pyrimidin-5-yl)-4-azaindol-3-yl)-oxoacetyl]piperazine], the pEC50 was more than 6.00. The same measure, in the same setting: for `C[C@@H]1CN(C(=O)c2ccccc2)CCN1C(=O)C(=O)c1c[nH]c2c(-c3cc4ccccc4s3)ccnc12` [Example 127] the value was more than 6.00.

For the origin of these results see patent US20050090522A1 (priority 2001, published 2005).
